From patent US5411733A (priority 1992, dated 1995)
Values joined by “and” are separate entries in the source; they are usually repeats but may differ in a detail not shown here. Equal entries are not always repeated. Where two headings read alike, the source gives them in different places.

What was measured:
[1] = tested on: Herpes simplex virus type I (Seibert strain); assay: microbe, parasite or virus in culture; type: cell-based; conditions: read-out: Plaque Formation Efficiency, Acv
[2] = Acv concentration in guinea pig blood; type: in vivo; conditions: for concentration at 1 h: serum, 200 mg, one hour
Description: An Acv suspension or a mixture of Acv and an extract solution of Cryt. f.# was orally or intragastrointestinally administered to a guinea pig. One hour from the administration, blood was taken from the heart, and an inactivated serum was prepared therefrom in the same manner as in Test Example 9.
(§1) To a 100 μl aliquot of the serum were added 100 μl of acetonitrile and 20 μl of a 100 mM sodium acetate solution, and the mixture was centrifuged (10000 rpm×10 mins.).
(§2) The sample solution was separated into Acv and adenine by reverse phase liquid chromatography in a usual manner. Each peak area was measured with an automatic integrator, and the Acv content was obtained from the previously prepared calibration curve.

[3] = Acv level in mouse blood (p.o.); type: in vivo, DDY male mouse
Description: as §1, §2
Further, 0.5 ml of an Acv preparation or 0.5 ml of a mixture of Acv and a varied concentration of Cryt. f.# extract solution was orally administered to a 6-week-old DDY male mouse, and the Acv concentration in blood was measured in the same manner as described above. […] Accordingly, the Cryt. f.# extract solution is believed to have antiherpesviral activity by itself.

[4] = lung; cited from earlier work

SMILES: Nc1nc2c(ncn2COCCO)c(=O)[nH]1 [Acyclovir, acyclovir]
- activity at 0.35 µg/mL [1]: 53.6%
- effect of Cryt. f.# on Acv absorption ([2]; Table 12): it is not recognized that the Acv absorption was accelerated
- concentration at 1 h ([2]; Acv (200 mg) + 1 mg/ml of Cryt. f.#, individual samples, read-out: Acv Concentration in Blood): 76400 nM
- concentration at 1 h ([2]; Acv (200 mg) + 1 mg/ml of Cryt. f.#, read-out: Acv Concentration in Blood, Mean ± σ): 92900 ± 31900 nM
- concentration at 1 h ([2]; Acv (200 mg) + 5 mg/ml of Cryt. f.#, individual samples, read-out: Acv Concentration in Blood): 92900 nM
- concentration at 1 h ([2]; Acv (200 mg) + 5 mg/ml of Cryt. f.#, read-out: Acv Concentration in Blood, Mean ± σ): 88300 ± 17400 nM
- concentration at 1 h ([2]; Acv (200 mg) + 20 mg/ml of Cryt. f.#, read-out: Acv Concentration in Blood, Mean ± σ): 72200 ± 70400 nM
- concentration at 1 h ([2]; Acv (200 mg), read-out: Acv Concentration in Blood, Mean ± σ): 88600 ± 85600 nM
- concentration ([3]; Acv (10 mg/kg) p.o., read-out: Acv Blood Level, Mean ± σ): 2280 ± 1490 nM
- concentration ([3]; Acv (100 mg/kg) + 2 mg/ml of Cryt. f.#, p.o., individual samples, listed as Acv, 100 mg/kg, read-out: Acv Blood Level): 1700 nM and 1400 nM and 1600 nM and 2500 nM and 4700 nM and 2900 nM and 2000 nM and 2400 nM and 9500 nM and 2300 nM
- concentration ([3]; Acv (100 mg/kg) + 2 mg/ml of Cryt. f.#, p.o., read-out: Acv Blood Level, Mean ± σ): 3100 ± 2430 nM
- concentration ([3]; Acv (100 mg/kg) + 10 mg/ml of Cryt. f.#, p.o., individual samples, listed as Acv, 100 mg/kg, read-out: Acv Blood Level): 2300 nM and 1100 nM and 3500 nM and 1600 nM and 1900 nM and 2600 nM and 1500 nM and 5200 nM
- concentration ([3]; Acv (100 mg/kg) + 10 mg/ml of Cryt. f.#, p.o., read-out: Acv Blood Level, Mean ± σ): 2460 ± 1330 nM
- concentration ([3]; Acv (100 mg/kg) + 20 mg/ml of Cryt. f.#, p.o., read-out: Acv Blood Level, Mean ± σ): 2590 ± 1530 nM
- effect of Cryt. f.# on Acv concentration in blood ([3]; mouse, Table 13): no increase in Acv concentration in blood was observed

SMILES: C=CC[C@@H]1/C=C(\C)C[C@H](C)C[C@H](OC)[C@H]2O[C@@](O)(C(=O)C(=O)N3CCCC[C@H]3C(=O)O[C@H](/C(C)=C/[C@@H]3CC[C@@H](O)[C@H](OC)C3)[C@H](C)[C@@H](O)CC1=O)[C@H](C)C[C@@H]2OC [FK 506]
- distribution [4]: concentrated in the lung
